From PMC11378297, “Discovery and Profiling of New Multimodal Phenylglycinamide Derivatives as Potent Antiseizure and Antinociceptive Drug Candidates” (ACS Chemical Neuroscience, 2024)

What was measured:
scPTZ seizures, mice = test: subcutaneous pentylenetetrazole (scPTZ) seizure test; format: in vivo, mouse; settings: 100 mg/kg i.p., 0.5 h; for protection in the scPTZ seizures: four mice
Description: R-enantiomers (R)-31–(R)-33 due to broad and potent activity in both MES and 6 Hz (32 mA) were further evaluated in the scPTZ seizures. […] (i.e., KA-104, Figure 1) to acetyl moiety causes almost complete loss of protection against PTZ seizures.
All substances were suspended in Tween 80 (1% aqueous solution) and administered i.p. as a single injection at a volume of 10 mL/kg. On each day of experimentation, fresh solutions were prepared. The detailed in vivo procedures are described elsewhere: the maximal electroshock seizure test (MES),[83] the subcutaneous pentylenetetrazole seizure test (scPTZ),[84] the 6 Hz psychomotor seizure model (32 mA and 44 mA),[85] and the chimney test.[86] The reference ASMs were purchased from commercial suppliers: VPA (Sigma-Aldrich, St. Louis, MO, USA), LCS and LEV (UCB Pharma, Braine l’Alleud, Belgium).

Na+ channel (site 2) = Na+ channel (site 2) radioligand binding; settings: 10 μM, rat cerebral cortex
Description: The current body of literature consistently reports that both sodium (Navx) and Cav1.2 calcium ion channels can be involved in the pathogenesis of epilepsy[67]−[69] and neuropathic pain.[70]−[73] […] Therefore, we performed binding and functional studies toward sodium (site 2) and calcium Cav1.2 channels at concentrations of 10 μM for (R)-31−(R)-33.
(§1) Using previously described testing methodologies, binding/functional tests were conducted on a commercial basis at Eurofins Laboratories (Poitiers, France) and Eurofins Panlabs Discovery Services Taiwan, Ltd. (New Taipei City, Taiwan); see Table S9 for more information.
(§2) Table S9. Radioligand binding and functional assays. […]
(§3) Assays were performed commercially in Eurofins Laboratories (Poitiers, France) or Eurofins Panlabs Discovery Services
(§4) Taiwan, Ltd. (New Taipei City, Taiwan).

CYP2D6 = target: T1, CYP2D6 (Homo sapiens, UniProt P10635); test: CYP2D6 P450-Glo assay; format: in vitro ADME
T1 construct: purchased Promega (Madison, WI, USA)
Description: The inhibition effect of enantiomers on CYP2C9 was also determined, but only at the highest concentrations (Figure 10C). In summary, the potential for DDIs of the tested enantiomers in comparison to the reference CYP inhibitors was estimated as very low.
Figure 10 Influence of (R)-31, (R)-32, and (R)-33 on: CYP3A4 activity (A) and the reference inhibitor ketoconazole (KE), CYP2D6 activity (B) and the reference inhibitor quinidine (QD), CYP2C9 activity (C) and the reference inhibitor sulfaphenazole (SE). The results are presented as means + SD. Statistical significance was evaluated by one-way ANOVA, followed by Bonferroni’s multiple comparison post hoc test (Graph Pad Prism 8.0.1 software) *p < 0.05, **p < 0.01, ***p < 0.001, ****p < 0.0001.
All assays and protocols used for the evaluation of compounds ADME-Tox parameters were described previously.[35]−[38],[95]−[98] The precoated PAMPA Plate System Gentest was utilized to estimate passive permeability (Tewksbury, MA, USA). HLMs, obtained from Sigma-Aldrich (St. Louis, MO, USA), were used for the metabolic stability assay. The most likely sites of metabolism could be identified, thanks to the MetaSite 6.0.1 program from Molecular Discovery Ltd. (Hertfordshire, UK), which was used to support the microsome experiments. The impact on recombinant human cytochromes CYP3A4, CYP2D6, and CYP2C9 was examined using CYP3A4, CYP2D6, and CYP2C9 P450-Glo kits supplied by Promega (Madison, WI, USA) in order to anticipate possible DDIs. […] The vitality of the cells was assessed using the CellTiter 96 AQueous Non-Radioactive Cell Proliferation Assay (Promega, Madison, WI, USA), following a 48 h incubation period with either the reference medication, doxorubicin (DOX), or serial dilutions of the investigated compounds. Using an EnSpire PerkinElmer microplate reader (Waltham, MA, USA), the luminescent signal and absorbances (measured at 490 nm) in DDIs and safety assays were determined. […]

[1] = tested on: 6 Hz (32 mA) seizures, mice; test: 6 Hz (32 mA) psychomotor seizure test; format: in vivo; settings: Mus musculus, ip, mice; for responders at 100 mg/kg: 100 mg/kg i.p., 0.5 h, read-out: 6 Hz (32 mA): number of mice protected/number of mice tested (converted); for ED50: pretreatment time 0.5 h;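 as to all read-outs here: compounds given as one i.p. dose suspended in 1% aqueous Tween 80, with the 6 Hz (32 mA) model considered to reflect focal epilepsy in humans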
Description: (§5) Both the aforementioned parameters (ED50 and TD50) enabled the calculation of protective indexes (PIs), which reflect the comparative the benefit–risk ratio of these experimental therapeutic agents.
(§6) Four mice per group were randomly assigned to each experimental group in the initial screening experiments (each mouse was used just once). Four groups, each with eight animals, received injections of different doses of the investigated substances in order to determine the ED50 or TD50 values. The PIs for the compounds investigated and reference ASMs were calculated by dividing the TD50 value, as determined in the chimney test by the respective ED50 value, as determined in the MES, scPTZ, or 6 Hz (32 mA or 44 mA) tests (PI = TD50/ED50). The PIs are a measure of the potential therapeutic window of the tested agent.

[2] = chimney test (motor coordination, TD50); settings: mouse, in vivo, ip, mice
Description: as §5, §6

[3] = tested on: maximal electroshock (MES) seizures, mice; test: maximal electroshock (MES) seizure test; format: in vivo; settings: Mus musculus, ip; for responders at 100 mg/kg: 0.5 h, read-out: MES: number of mice protected/number of mice tested; for ED50: mice, pretreatment time 0.5 h
Description: as §5, §6

TRPV1 (VR1) (h) = target: T2, TRPV1 (VR1) (h) (Homo sapiens, UniProt Q8NER1); test: TRPV1 (VR1) (h) (antagonist effect); format: cell-based; settings: human recombinant CHO cells, antagonist effect; for Kb: read-out: KB (dissociation constant)
T2 construct: host or cells: CHO cells
Description: Further in vitro functional studies confirmed TRPV1 antagonist activity for (R)-31–(R)-33.
as §1, §2
TRPV1 (VR1) (h) (antagonist effect) […]
as §3, §4

[4] = tested on: neuromuscular strength, mice; test: grip strength test; format: in vivo, mouse
Description: Prior to the ivPTZ test, a grip strength test was conducted to evaluate the tested eutomers’ acute impact on neuromuscular strength.
30 min prior to the testing, eutomers (R)-31, (R)-32, and (R)-33 were given i.p. after being suspended in a 1% Tween 80 solution. To reduce the number of animals utilized, neuromuscular strength measurements were made right before the seizure threshold test. The grip-strength test and the timed ivPTZ test experimental protocols were covered in full elsewhere.[87]
Figure S3. Effects of (R)-31, (R)-32, and (R)-33 on neuromuscular strength in mice. The compounds were administered i.p., 30 min before the test. Control animals received vehicle. Data are presented as mean ± SD grip strengths in millinewtons per gram of mouse body weight (mN/g); n = 10 animals. The statistical significance was evaluated using the Student’s t test (GraphPad Prism 8). […]

T2 sequence (Q8NER1 whole entry): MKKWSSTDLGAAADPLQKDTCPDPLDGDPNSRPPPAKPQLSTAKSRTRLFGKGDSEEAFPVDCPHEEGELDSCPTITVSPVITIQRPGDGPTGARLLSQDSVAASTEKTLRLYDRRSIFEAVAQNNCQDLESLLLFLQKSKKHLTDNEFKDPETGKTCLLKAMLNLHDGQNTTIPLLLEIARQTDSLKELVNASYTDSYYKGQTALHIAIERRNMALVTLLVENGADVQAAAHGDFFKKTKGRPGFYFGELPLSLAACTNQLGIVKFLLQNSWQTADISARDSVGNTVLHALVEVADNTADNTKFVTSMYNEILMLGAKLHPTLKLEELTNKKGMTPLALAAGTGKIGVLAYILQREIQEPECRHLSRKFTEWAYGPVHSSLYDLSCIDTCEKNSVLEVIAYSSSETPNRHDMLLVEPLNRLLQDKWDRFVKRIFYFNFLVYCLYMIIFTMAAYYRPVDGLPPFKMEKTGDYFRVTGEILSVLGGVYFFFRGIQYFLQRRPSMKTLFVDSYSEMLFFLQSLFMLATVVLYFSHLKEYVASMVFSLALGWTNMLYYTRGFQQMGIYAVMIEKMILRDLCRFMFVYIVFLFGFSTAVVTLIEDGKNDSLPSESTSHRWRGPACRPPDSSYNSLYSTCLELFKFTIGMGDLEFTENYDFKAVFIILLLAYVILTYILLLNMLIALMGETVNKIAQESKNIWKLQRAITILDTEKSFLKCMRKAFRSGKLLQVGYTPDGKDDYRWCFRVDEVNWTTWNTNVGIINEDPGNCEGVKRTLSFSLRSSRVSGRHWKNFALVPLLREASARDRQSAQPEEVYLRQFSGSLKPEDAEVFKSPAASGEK
T1 sequence (P10635 whole entry): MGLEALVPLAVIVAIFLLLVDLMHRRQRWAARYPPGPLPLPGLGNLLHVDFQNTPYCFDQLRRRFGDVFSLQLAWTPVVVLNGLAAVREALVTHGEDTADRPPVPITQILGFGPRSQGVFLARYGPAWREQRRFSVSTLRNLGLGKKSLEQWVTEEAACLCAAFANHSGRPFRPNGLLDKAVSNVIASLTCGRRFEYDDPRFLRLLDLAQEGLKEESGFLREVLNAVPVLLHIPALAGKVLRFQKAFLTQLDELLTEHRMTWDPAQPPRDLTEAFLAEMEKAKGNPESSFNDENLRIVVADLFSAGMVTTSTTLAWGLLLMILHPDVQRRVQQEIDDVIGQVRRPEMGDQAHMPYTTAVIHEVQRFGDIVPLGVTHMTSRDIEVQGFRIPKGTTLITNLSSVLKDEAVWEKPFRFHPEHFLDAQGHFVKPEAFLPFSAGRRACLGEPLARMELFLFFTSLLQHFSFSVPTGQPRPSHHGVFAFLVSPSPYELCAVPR

Compound | protection in the scPTZ seizures (scPTZ seizures, mice) | scPTZ: number of mice protected/number of mice tested (scPTZ seizures, mice) | % inhibition of control specific binding (Na+ channel (site 2)) | effect on CYP2D6 activity (CYP2D6; 1 and 10 μM) | responders at 100 mg/kg [1] [%] | ED50 [1] [mg/kg] | TD50 at 0.5 h [2] [mg/kg] | responders at 100 mg/kg [3] [%] | ED50 [3] [mg/kg] | IC50 (TRPV1 (VR1) (h)) [µM] | Kb (TRPV1 (VR1) (h)) [µM] | effect on neuromuscular strength (grip strength test) ([4]; 50 mg/kg i.p.) | effect on neuromuscular strength (grip strength test) ([4]; 100 mg/kg i.p.) | effect on CYP2D6 activity (CYP2D6; 25 μM)
CC(=O)N[C@@H](C(=O)N1CCN(c2cccc(C(F)(F)F)c2)CC1)c1ccccc1 [(R)-31, (R)-N-(2-Oxo-1-phenyl-2-(4-(3-(trifluoromethyl)phenyl)piperazin-1-yl)ethyl)acetamide] | 25% | 1/4 | 33.9 (10) % | weak activation | 100 | 34.5 | 174 | 100 | 98.4 | 3.5 | 0.46 | did not produce any significant effects | did not produce any significant effects | –
CC(=O)N[C@@H](C(=O)N1CCN(c2cccc(OC(F)(F)F)c2)CC1)c1ccccc1 [(R)-32, (R)-N-(2-Oxo-1-phenyl-2-(4-(3-(trifluoromethoxy)phenyl)piperazin-1-yl)ethyl)acetamide] | ineffective | 0/4 | 40.7 (10) % | weak activation | 100 | 18.8 | 114 | 100 | 73.9 | 11 | 1.4 | did not produce any significant effects | – | –
CC(=O)N[C@@H](C(=O)N1CCN(c2cccc(SC(F)(F)F)c2)CC1)c1ccccc1 [(R)-33, (R)-N-(2-Oxo-1-phenyl-2-(4-(3-((trifluoromethyl)thio)phenyl)piperazin-1-yl)ethyl)acetamide] | ineffective | 0/4 | 63.2 (10) % | – | 100 | 23.9 | 146 | 100 | 75.7 | 13 | 1.6 | did not produce any significant effects | – | slightly inhibited
